Measured values published in US20200339544A1 (JOINT STOCK COMPANY "BIOCAD", priority 2017, published 2020).
Where two headings read alike, the source gives them in different places.

How the values were obtained:
WT EGFR (Wild-Type EGFR) = target: T1, WT EGFR (Wild-Type EGFR) (Homo sapiens, UniProt P00533); test: Inhibition of WT EGFR kinase activity (ADP-Glo); type: biochemical
T1 construct: purchased SignalChem
Outline: (§1)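 Recombinant WT or double-mutant EGFR was incubated with a solution of 0.5 mg/mL peptide substrate and 50 μM ATP for 180 minutes at 37° C. Kinase activity was detected by ADP-Glo luminescence. IC50 values came from a four-parameter logistic fit.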

[1] = target: T2, DM EGFR (DoubleMutantEGFR, L828R/T790M) (Homo sapiens, UniProt P00533, L858R/T790M); test: Inhibition of DM EGFR kinase activity (ADP-Glo); type: biochemical; conditions: for IC50: inhibition of kinase activity, EGFR DM (L828R/T790M); for SI, IC50(WT)/IC50(DM): selectivity index, kinase EGFR WT vs EGFR DM
T2 construct: purchased SignalChem
Outline: as §1

[2] = system: A549 (lung adenocarcinoma, WT); test: Antiproliferative activity on A549 cells (Alamar Blue); type: cell-based; conditions: Homo sapiens, antiproliferative test
Outline: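 Cells seeded at 5*10^3/well in RPMI-1640 with 2% FBS, attached 16-18 h at 37° C, then exposed to compounds (≤1% DMSO) for 72 h. Alamar Blue added for 3-5 h; fluorescence read at 540/590 nm. IC50 from four-parameter logistic fit.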

[3] = system: HCC827 (lung adenocarcinoma, SM, exon19delE746-A750); test: Antiproliferative activity on HCC827 cells (Alamar Blue); type: cell-based; conditions: Homo sapiens, antiproliferative test
Description: Antiproliferative activity of EGFR inhibitors (Tables 15 and 16) was measured in cell-based bioassay on continuous epithelial cell cultures: A549 (lung adenocarcinoma, ATCC® CRM-CCL-185™—WT), HCC827 (lung adenocarcinoma, ATCC® CRL-2868™—SM (SingleMutantEGFR, exon19delE746-A750)) and H1975 (lung adenocarcinoma, ATCC® CRL-5908™—DM (DoubleMutantEGFR, L828R/T790M)) using cell viability reagent Alamar Blue (ThermoFisher, # DAL1100). Cells were cultured in 10% FBS-supplemented (Gibco, #16140071) RPMI-1640 (PanEco, S330p) for at least 1 passage after thawing, washed with PBS and passaged in 96-well culture plates (3599, Corning) with RPMI-1640 growth medium supplemented with 2% FBS in an amount of 5*10^3 cells/well for A549, 10*10^3 cells/well for HCC827 and 15*10^3 cells/well for H1975 in 100 μL, and incubated at 37° C. in an incubator (Thermo Forma, USA) under 5% of CO2 for 16-18 h for cell attachment.
The test compounds were dissolved in DMSO in the selected range of concentrations and transferred to RPMI-1640 medium (PanEco, S330p) supplemented with 2% FBS. After adding 50 μl of the prepared dilutions to the cells, the incubation mixture contained the final concentrations of the test substances and no more than 1% DMSO. The plates were Incubated at 37° C. for 72 h. After incubation, 15 μl of Alamar Blue vital dye (ThermoFisher, # DAL1100) was added to each well. The plates were shaken on an orbital shaker (Biosan, Latvia) and further incubated for 3-5 h in a CO2 incubator (Thermo Forma, USA). Number of living cells was estimated using a plate spectrophotometer Infinite M200Pro, (Tecan, Switzerland) measuring fluorescent signal at the excitation wavelength (λEx) of 540 nm and emission wavelength (λEm) of 590 nm.
IC50 was calculated using Magellan 7.2 software (Tecan, Switzerland) approximating experimental points by four-parameter logistic model with the optimization by Levenberg-Marquardt.

[4] = system: H1975 (lung adenocarcinoma, DM, L828R/T790M); test: Antiproliferative activity on H1975 cells (Alamar Blue); type: cell-based; conditions: for IC50: Homo sapiens, NCI-H1975, H1975 cells; for SI IC50(A549)/IC50(DM): selectivity index, A549 vs H1975 cells
Outline: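 H1975 cells (15*10^3/well) attached 16-18 h in RPMI-1640 with 2% FBS, then exposed to compounds (≤1% DMSO final) for 72 h at 37 °C. Viability by Alamar Blue fluorescence (Ex 540/Em 590 nm) after 3-5 h; IC50 from four-parameter logistic fit.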

[5] = General cytotoxicity on HepG2 cells; type: cell-based; conditions: human; general cytotoxicity, HepG2 cells, 72 hours, average of several tests
Outline: (§2)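 HepG2 cells seeded at 2*10^4 cells per well and compounds added in DMEM with 2% FBS for 72 h at 37 °C. Viability read with Alamar Blue and CC50 derived as for IC50. Therapeutic index taken as HepG2 CC50 over H1975 IC50.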

HepG2 cells = test: General cytotoxicity on HepG2 cells; type: cell-based; conditions: therapeutic index, CC50 HepG2 / IC50 H1975
Outline: as §2

[6] = Chemical stability in human blood plasma; type: in vitro ADME; conditions: pooled human blood plasma; 10 μm; 4 hours at 37° C.; substance amount remaining
Outline: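 Pooled plasma from ten healthy donors was spiked to 10 μM from a 10 mM DMSO stock and held 4 h at 37 °C. After acetonitrile protein precipitation, HPLC peak areas before and after incubation gave the percentage of compound remaining.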

[7] = Enzyme stability in human liver S9 fractions; type: in vitro ADME; conditions: 0.5 mg/mL pooled human liver S9 fractions; 10 μM compound; 37° C.; pH 7.4; read-out: Stability in liver S9 fractions, Clint
Description: Determination of enzyme stability.
Measuring of candidate enzyme stability enabled estimation of the stability of the compounds towards the action of liver enzymes.
Enzyme degradation rate was measured by incubating the reaction mixture in a dry block thermostat at 37° C., said reaction mixture comprising 0.5 mg/mL of pooled human liver S9 fractions (XenoTech, USA, cat # H0610), 10 μM compound, 2 mM β-nicotinamide adenine dinucleotide (Carbosynth, UK, cat # NN10871) and 4 mM magnesium chloride in 0.1 M sodium-phosphate buffer, pH=7.4. The reaction was quenched with acetonitrile (100 μL of acetonitrile/100 μL of the reaction mixture). After quenching, the samples were centrifuged at 10000 rpm for 10 minutes. Supernatant fluid was tested by chromatographic technique using Agilent1200 (Agilent, USA). We used gradient elution (1 mL/min flow rate). A graph of the logarithm of substance's peak area as a function of time was made. The dependent factor of the line corresponded to the elimination rate constant K based on which the drug's half-life T½ and intrinsic clearance CLint were calculated:
Based on the data obtained, candidate enzyme stability in human liver S9 fractions was determined (see Table 11).

[8] = average values obtained in several tests, Table 16, read-out: H1975 (DM) IC50
[9] = antiproliferative test, Table 15, read-out: IC50 H1975 (DM)

| Compound | IC50 (WT EGFR (Wild-Type EGFR)) | IC50 [1] | SI, IC50(WT)/IC50(DM) [1] | IC50 [2] | IC50 [3] | IC50 [4, 8] | IC50 [4, 9] | SI IC50(A549)/IC50(DM) [4] | CC50 at 72 h [5] | TI, CC50/IC50 (HepG2 cells) | Stability in blood plasma, % [6] | Intrinsic clearance in human liver S9 fractions at 10 µM [7] |
| --- | --- | --- | --- | --- | --- | --- | --- | --- | --- | --- | --- | --- |
| C=CC(=O)Nc1cc(Nc2cc(C(=O)c3ccc(N(CC)CC)cc3)ccn2)c(OC)cc1N(C)CCN(C)C | 145 nM | 5.53 nM | 26.20 | 4.42 µM | 13.9 nM | 34.2 nM | 34.2 nM | 129 | 7.82 µM | 229 | – | – |
| C=CC(=O)Nc1cc(Nc2nccc(C(=O)c3ccc(OC4CCCCC4)cc3)n2)c(OC)cc1N(C)CCN(C)C [EGFR_3365_67, N-(5-((4-(4-(cyclohexyloxy)benzoyl)pyrimidin-2-yl)amino)-2-((2-(dimethylamino)ethyl)(methyl)amino)-4-methoxyphenyl)acrylamide] | 97.5 nM | 10.5 nM | 9.27 | 2.47 µM | 26.3 nM | 221 nM | 221 nM | 11 | 9.46 µM | 43 | 92.8% | 18.7 µL/min/mg |
| C=CC(=O)Nc1cc(Nc2cc(C(=O)c3ccc(OCC(C)C)cc3)ccn2)c(OC)cc1N(C)CCN(C)C [EGFR_3365_77, N-(2-((2-(dimethylamino)ethyl)(methyl)amino)-5-((4-(4-isobutoxybenzoyl)pyridin-2-yl)amino)-4-methoxyphenyl) acrylamide] | 49.9 nM | 4.97 nM | 10.04 | 2.17 µM | 23.5 nM | 249 nM | 249 nM | 9 | 8.34 µM | 33 | – | – |
| C=CC(=O)Nc1cc(Nc2nccc(C(=O)c3ccc(N4CC[C@@H](OC)C4)cc3)n2)c(OC)cc1N(C)CCN(C)C [EGFR_3365_115, (R)-N-(2-((2-(dimethylamino)ethyl)(methyl)amino)-4-methoxy-5-((4-(4-(3-methoxypyrrolidin-1-yl)benzoyl)pyrimidin-2-yl)amino)phenyl)acrylamide] | 126 nM | 1.99 nM | 63.44 | 12.8 µM | – | 19.1 nM | 19.1 nM | 670 | 22 µM | 1154 | 94.6% | 19.8 µL/min/mg |
| C=CC(=O)Nc1cc(Nc2nccc(C(=O)c3ccc(N4CCCC4)cc3OC)n2)c(OC)cc1N(C)CCN(C)C [EGFR_3365_123, N-(2-((2-(dimethylamino)ethyl)(methyl)amino)-4-methoxy-5-((4-(2-methoxy-4-(pyrrolidin-1-yl)benzoyl)pyrimidin-2-yl)amino)phenyl)acrylamide] | 52 nM | 2.65 nM | 19.58 | 7.19 µM | – | 1.18 nM | 1.18 nM | 6105 | 40 µM | 33959 | 87.3% | 9.2 µL/min/mg |
| C=CC(=O)Nc1cc(Nc2nccc(C(=O)c3c(OC)cc(OC)cc3OC)n2)c(OC)cc1N(C)CCN(C)C [EGFR_3365_124, N-(2-((2-(dimethylamino)ethyl)(methyl)amino)-4-methoxy-5-((4-(2,4,6-trimethoxybenzoyl)pyrimidin-2-yl)amino)phenyl)acrylamide] | 76.3 nM | 3.57 nM | 21.41 | 19.7 µM | – | 66.3 nM | 66.3 nM | 298 | > 50 µM | >754 | 90.7% | 22.2 µL/min/mg |
